Assay: xn = mol fraction of the nth substance listed
Details: 101 kPa, Liquid

CCCCn1cc[n+](C)c1.F[P-](F)(F)(F)(F)F [1-butyl-3-methylimidazolium hexafluorophosphate] + CC#N
mass density [kg/m3]
Details	x1 = 0.1	x1 = 0.1997	x1 = 0.3001	x1 = 0.4002	x1 = 0.4995	x1 = 0.5996	x1 = 0.7001	x1 = 0.8	x1 = 0.8992	x1 = 1
293.15 K	974.06	1089.47	1167.16	1221.32	1261.57	1293.48	1318.51	1339.25	1356.81	1371.57
298.15 K	969.05	1084.37	1162.48	1216.77	1257.1	1289.08	1314.15	1334.92	1352.54	1367.22
303.15 K	963.9	1079.44	1157.73	1212.1	1252.55	1284.55	1309.69	1330.47	1348.19	1362.86
308.15 K	958.79	1074.57	1153.01	1207.52	1248.07	1280.12	1305.51	1326.23	1343.83	1358.56
313.15 K	953.96	1070.04	1148.67	1203.29	1243.97	1276.12	1301.33	1322.21	1339.74	1354.3
323.15 K	943.95	1060.53	1139.57	1194.5	1235.37	1267.65	1292.68	1313.73	1331.33	1345.98
333.15 K	933.35	1050.42	1129.8	1184.99	1226.09	1258.64	1283.91	1305.14	1323.02	1337.7
343.15 K	923.24	1040.99	1120.72	1176.43	1217.82	1250.62	1276.41	1297.84	1315.94	1330.76

CCCCn1cc[n+](C)c1.F[P-](F)(F)(F)(F)F [1-butyl-3-methylimidazolium hexafluorophosphate] + c1ccccc1
mass density [kg/m3]
Details	293.15 K	298.15 K	303.15 K	308.15 K	313.15 K	323.15 K	333.15 K	343.15 K
x1 = 0.34	1166.34	1161.8	1157.16	1152.56	1148.35	1139.5	1129.94	1120.87
x1 = 0.3995	1197.59	1193.15	1188.62	1184.16	1180.04	1171.45	1162.13	1153.45
x1 = 0.4999	1239.2	1234.86	1230.38	1226.01	1222.02	1213.65	1204.95	1196.96
x1 = 0.5999	1274.25	1269.99	1265.61	1261.3	1257.39	1249.14	1240.67	1233.13
x1 = 0.7	1304.29	1299.95	1295.6	1291.34	1287.35	1279.03	1270.76	1263.66
x1 = 0.8003	1329.79	1325.97	1321.58	1317.28	1313.09	1304.76	1296.68	1289.79
x1 = 0.9001	1351.51	1347.29	1342.85	1338.55	1334.45	1326.2	1317.85	1310.77
x1 = 1	1371.57	1367.22	1362.86	1358.56	1354.3	1345.98	1337.7	1330.76

Reference: the NIST ThermoML archive (doi:10.1021/je700266n)
